Molecular target: T1, DNA-3-methyladenine glycosylase 1 (Escherichia coli (strain K12), UniProt P05100)
T1 sequence (P05100 whole entry): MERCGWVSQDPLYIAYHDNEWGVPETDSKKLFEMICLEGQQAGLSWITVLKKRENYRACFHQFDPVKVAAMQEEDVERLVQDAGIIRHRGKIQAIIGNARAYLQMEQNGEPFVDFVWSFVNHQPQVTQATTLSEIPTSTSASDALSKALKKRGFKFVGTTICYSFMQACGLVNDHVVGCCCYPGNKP
Assay: Inhibition of Escherichia coli DNA-3-methyladenine glycosylase 1

| IC50 | Structure (SMILES) |
| --- | --- |
| 1500 µM | Cn1cnc(N)c2ncnc1-2 [3-METHYLADENINE] |
| 2.3 µM | CCCCn1cnc(N)c2ncnc1-2 [3-BUTYLADENINE] |
| 5 µM | CCCn1cnc(N)c2ncnc1-2 [3-PROPYLADENINE] |
| 50 µM | CCn1cnc(N)c2ncnc1-2 [3-ETHYLADENINE] |
| 0.4 µM | Nc1ncn(Cc2ccccc2)c2ncnc1-2 [3-BENZYLADENINE] |
